Measured values taken from US4335138A, “Novel carbamates, their preparation, and pharmaceutical formulations containing these compounds” (BASF Aktiengesellschaft, priority 1979, dated 1982).

Assays:
rats [1] = test: Hypnotic action on intraperitoneal administration (period of absence of the righting reflex, duration of sleep); format: in vivo, female Sprague-Dawley rats; conditions: for ED (60 min sleep): Rattus norvegicus, 1 h, dose which causes a 60 minute period of sleep, regression analysis
Experimental: To investigate the hypnotic action, these substances are administered intraperitoneally to groups of 4-8 female Sprague-Dawley rats each weighing 145-200 g. The period of absence of the righting reflex (ie. the duration of sleep) served as a criterion of the hypnotic action.
Linear relationships exist between the logarithms of the administered doses (mg/kg) and the logarithms of the period of sleep (min), from which relationships the dose which causes a 60 minute period of sleep is calculated, as the ED 60 min, by regression analysis.

in vivo = conditions: rat, ip; for selectivity ratio: Therapeutic range
Experimental: (§1) The acute toxicity is determined on groups of 10 rats of the same strain as above, again for intraperitoneal administration.
(§2) The comparison substance used is the well known hypnotic Ethinamate (1-ethynyl-cyclohexyl carbamate).

[2] = German Laid-Open Application DOS No. 2,346,305; cited from earlier work
rats [3] = test: in vivo; conditions: rat, ip, 681 mg/kg
Experimental: as §1, §2

Compound | ED (60 min sleep) (rats [1]; ip, intraperitoneal, rats) | R.A. (relative activity) (rats [1]; rat, in vivo, ip) | LD50 at 6 h (in vivo) | selectivity ratio (in vivo) | Analgesic properties (in words), prior art [2] | R.A. (relative activity) (rats [1]; Ethinamate = 1.00, intraperitoneal, rats) | Mortality rate (rats [3])
CCCNC(=O)OC[C@@]1(C(C)=O)C[C@@H]2C=C[C@H]1C2 (relative stereo) [Example 4, exo-2-(N-n-propylcarbamyloxymethyl)-norborn-5-en-2-yl methyl ketone] | 21.5 mg/kg | 3.22 | 392 mg/kg | 18.2 |  |  | 
CC(=O)[C@]1(COC(=O)NC(C)C)C[C@@H]2C=C[C@H]1C2 (relative stereo) [Example 7, exo-2-(N-isopropylcarbamyloxymethyl)-norborn-5-en-2-yl methyl ketone] | 20.7 mg/kg | 3.35 | 137 mg/kg | 6.6 |  |  | 
CC(=O)[C@]1(COC(=O)NC2CCCC2)C[C@@H]2C=C[C@H]1C2 (relative stereo) [Example 15, exo-2-(N-cyclopentylcarbamyloxymethyl)-norborn-5-en-2-yl methyl ketone] | 46.4 mg/kg | 1.49 | 247 mg/kg | 5.3 |  |  | 
CC(=O)[C@]1(COC(=O)NC(C)C)C[C@@H]2CC[C@H]1C2 (relative stereo) [Example 36, exo-2-(N-isopropylcarbamyloxymethyl)-norborn-2-yl methyl ketone] | 37.6 mg/kg | 1.84 | 464 mg/kg | 12.3 |  |  | 
CC(=O)[C@]1(COC(=O)NCC(C)C)C[C@@H]2C=C[C@H]1C2 (relative stereo) [Example 87, exo-2-(N-(2-methylpropyl)-carbamyloxymethyl)-norborn-5-en-2-yl methyl ketone] | 46.7 mg/kg | 1.48 | 482 mg/kg | 10.3 |  |  | 
CC(=O)[C@]1(COC(=O)NC2CC2)C[C@@H]2C=C[C@H]1C2 (relative stereo) [Example 109, exo-2-(N-cyclopropylcarbamyloxymethyl)-norborn-5-en-2-yl methyl ketone] | 27.2 mg/kg | 2.55 | 187 mg/kg | 6.9 |  |  | 
CNC(=O)OC1OC(=O)C2C3C=CC(C3)C12 (stereo not shown) [4-oxa-5-(5-methylcarbamyloxy)-tricyclo[5,2,1,0^2,6]-dec-8-en-3-one] |  |  |  |  | exhibit analgesic properties |  | 
C#CC1(OC(N)=O)CCCCC1 [Ethinamate, 1-ethynyl-cyclohexyl carbamate, reference compound] | 69.3 mg/kg |  |  |  |  | 1.00 | 
CCCNC(=O)OCC1(C(C)=O)CC=CCC1 (stereo not shown) [Example 52, 1-(N-propylcarbamyloxymethyl)-cyclohex-3-enyl methyl ketone] | 28.5 mg/kg | 2.43 | 215 mg/kg | 7.5 |  |  | 
CCC(C)NC(=O)OC[C@@]1(C(C)=O)C[C@@H]2C=C[C@H]1C2 (stereo partly drawn) [Example 88, exo-2-(N-but-2-yl-carbamyloxymethyl)-norborn-5-en-2-yl methyl ketone] | 30.8 mg/kg | 2.25 | 150 mg/kg | 4.9 |  |  | 
CC(=O)[C@]1(COC(=O)NC(C)C2CC2)C[C@@H]2C=C[C@H]1C2 (stereo partly drawn) [Example 98, exo-2-[N-(1-cyclopropylethyl)-carbamyloxymethyl]-norborn-5-en-2-yl methyl ketone] | 30.3 mg/kg | 2.29 | ≥ 681 mg/kg | ≥ 22.5 |  |  | 0/10
